Measured values: patent US7371889B2, “Chemical entities with multiple modes of anti-inflammatory action” (Sami Labs Limited, priority 2002, dated 2008)

Legend:
T cells = assay: In vitro proliferation of T cells from draining lymph nodes after concanavalin A stimulation, tritiated thymidine incorporation; assay type: cell-based; details: T cells isolated day 22 from treated rats, thymidine uptake
Experimental: (§1) Hindpaw swelling (days 3, 7, 11, 14, 17, 21) and nociception (days 15 and 21) were measured. On day 22 rats were sacrificed, draining lymph nodes were removed and T cells isolated. In vitro proliferation of T cells following stimulation with concanavalin A (0.5-5 mcg/mL) was measured using a tritiated thymidine incorporation assay.
IL-2 receptor expression on T cells was measured by FACS analysis. […] T cells were isolated and characterized by FACS analysis.

[1] = test system: Freund's adjuvant (FA) arthritis; assay: Freund's adjuvant (FA) arthritis in rats, nociception; assay type: in vivo; details: oral administration, dose giving the same extent of inhibition
Experimental: as §1, with “Freund's adjuvant (FA) arthritis was induced in rats by a single intraplantar injection into the right hindpaw of 100 microl of Mycobacterium butirricum (6 mg/mL). […] Hindpaw” for “Hindpaw”

| Compound | order of activity, inhibition of T-cell proliferation (T cells) | dose at which anti-nociceptive [1] [mg/kg] |
| --- | --- | --- |
| CC(=O)O[C@@H]1CC[C@@]2(C)[C@@H](CC[C@]3(C)[C@@H]2C(=O)C=C2[C@@H]4[C@@H](C)[C@H](C)CC[C@]4(C)CC[C@]23C)[C@@]1(C)C(=O)O [AKBBA, 3-acetyl-11-keto-β-boswellic acid, reference compound] | SA-041>SA-040>N>1>AKBBA | – |
| CC(=O)OC1CCC2(C)C(CCC3(C)C2C(=O)C=C2C4C(C)C(C)CCC4(C)CCC23C)C1(C)C(=O)OCCl (stereo not drawn) [Example 1, 3-Acetyl-11-keto-β-boswellic acid chloromethyl ester] | SA-041>SA-040>N>1>AKBBA | – |
| COc1ccc2cc([C@H](C)C(=O)O)ccc2c1 [N, Naproxen, reference compound] | SA-041>SA-040>N>1>AKBBA | – |
| CC(=O)O[C@@H]1CC[C@@]2(C)[C@@H](CC[C@]3(C)[C@@H]2C(=O)C=C2[C@@H]4[C@@H](C)[C@H](C)CC[C@]4(C)CC[C@@]23C)[C@@]1(C)C(=O)OCOC(=O)C(C)c1ccc(CC(C)C)cc1 (some centres unmarked) [SA-040, AKBBA-Ibuprofen conjugate] | SA-041>SA-040>N>1>AKBBA | 5.9 |
